Results from ChEMBL document CHEMBL2157954.
Activity calls are given as the source filed them. No cut-off for these calls is given here.

Tests used:
Rattus norvegicus [1] = organism: Rattus norvegicus; test: […] activity in rat with several spinal cord injury assessed as increase in locomotory function; type: functional, organism-based
Rattus norvegicus [2] = organism: Rattus norvegicus; test: […] activity in rat with several spinal cord injury assessed as increase in voiding function; type: functional, organism-based
Lymphocyte = test: Immunosuppressive activity against autoimmune lymphocytes assessed as inhibition of cell expansion; type: functional, cell-based
Rattus norvegicus [3] = test: […] activity in rat with several spinal cord injury assessed as increase in locomotory function at 20 mg/kg/day for 7 days; type: functional, organism-based
Rattus norvegicus [4] = test: […] activity in rat with several spinal cord injury assessed as increase in voiding function at 20 mg/kg/day for 7 days; type: functional, organism-based

| Structure (SMILES) | Activity (Rattus norvegicus [1]) | Activity (Rattus norvegicus [2]) | inhibition (Lymphocyte) | Activity (Rattus norvegicus [3]) | Activity (Rattus norvegicus [4]) |
| --- | --- | --- | --- | --- | --- |
| Cc1cc(NC(=O)/C(C#N)=C(\O)C2CC2)ccc1C(F)(F)F | Active | Active |  |  |  |
| C/C(O)=C(\C#N)C(=O)Nc1ccc(C(F)(F)F)cc1 | Active | Active |  |  |  |
| Cc1oncc1C(=O)Nc1ccc(C(F)(F)F)cc1 |  |  | Active | Active | Active |
